Assay results taken from patent publication US20140364331A1, “RECURRENT GENE FUSIONS IN PROSTATE CANCER” (THE REGENTS OF THE UNIVERSITY OF MICHIGAN, priority 2009, published 2014).

Test system: UBE2L3-KRAS fusion protein
Experiment: Western blotting of UBE2L3-KRAS fusion protein in cells treated with bortezomib
Format: cell-based, human
Method: The prostate cancer cell lines DU145 were transfected with siRNA duplex (Dharmacon, Lafayette, Colo., USA) against UBE2L3 (5′-CCACCGAAGATCACATTTA-3′; SEQ ID NO:1), KRAS (5′-GAAGTTATGGAATTCCTTT-3′; SEQ ID NO:2) or the fusion junction (5′-CCGACCAAGGCCTGCTGAA-3′; SEQ ID NO:3) by oligofectamine (Invitrogen). DU145 transfected with non-targeting siRNA and RWPE cells was used as negative control. Post 48 hours transfection, cells were homogenized in NP40 lysis buffer (50 mM Tris-HCl, 1% NP40, pH 7.4, Sigma, St. Louis, Mo.), and complete proteinase inhibitor mixture (Roche, Indianapolis, Ind.). Ten micrograms of each protein extract were boiled in sample buffer, separated by SDS-PAGE, and transferred onto Polyvinylidene Difluoride membrane (GE Healthcare, Piscataway, N.J.). The membrane was incubated for one hour in blocking buffer [Tris-buffered saline, 0.1% Tween (TBS-T), 5% nonfat dry milk] and incubated overnight at 4° C. with the following antibodies: anti-RAS mouse monoclonal (1:1000 in blocking buffer, Millipore Cat #: 05-516), anti-KRAS rabbit polyclonal (1:1000, Proteintech Group Inc., Cat #: 12063-1-AP) and anti-beta Actin mouse monoclonal (1:5000, Sigma Cat #: A5441) antibodies. Following three washes with TBS-T, the blot was incubated with horseradish peroxidase-conjugated secondary antibody and the signals visualized by enhanced chemiluminescence system as described by the manufacturer (GE Healthcare). To test fusion protein expression in multiple prostate derived cell lines, lysates from DU145, PrEC, RWPE, 22RV1, VCaP, PC3 either untreated or treated with 500 nM bortezomib for 12 hours were used. Bortezomib treated HEK cells over-expressing UBE2L3-KRAS fusion protein was used as a positive control. […] For ERK activation analysis NIH 3T3 cells were starved for 12 hours before immunoblot analysis using phospho erk1/2 antibody. All antibodies for the MAPK signaling proteins were purchased from Cell Signaling Technologies.

CC(C)C[C@H](NC(=O)[C@H](Cc1ccccc1)NC(=O)c1cnccn1)B(O)O [bortezomib]
levels of UBE2L3-KRAS protein expression (Western blot) (DU145 cells, 500 nM bortezomib for 12 hours): enhanced the levels of UBE2L3-KRAS protein expression | expression of the UBE2L3-KRAS fusion protein (Western blot) (HEK293 cells over-expressing UBE2L3-KRAS construct, 500 nM bortezomib for 12 hours): expression of the fusion protein was clearly apparent | expression of the UBE2L3-KRAS fusion protein (Western blot) (RWPE prostate epithelial cells overexpressing UBE2L3-KRAS): proteosomal inhibition with bortezomib was required
